According to patent US9278963B2, “Pyrimidine hydroxy amide compounds as histone deacetylase inhibitors” (Acetylon Pharmaceuticals, Inc., priority 2013, dated 2016):

What was measured:
[1] = system: SH-SY5Y neuroblastoma cells; assay: Neuroblastoma cell cycle by flow cytometry, SH-SY5Y; type: cell-based; details: for percent of the cell population in G2, S, G1 and Sub G1 phase: 72 hours, 0.5, 2 and 5 μM (ATRA 1 μM); for cell cycle stages and fold change of p21: 4 days
Experimental: The following is a quick summary of the neuroblastoma cell cycle experiments. Adherent cells were plated into 12-well plates at 10^6 cells/well and allowed to adhere for 2-4 hours. Compounds were dispensed in DMSO at the indicated concentrations using an automated liquid handling system (Tecan D300) and incubated for the indicated times at 37° C. with 5% CO2. Cells were harvested with enzyme-free cell disassociation solution and washed with buffered saline. Cells were fixed overnight with 100% ethanol. Cell cycle was assessed by flow cytometry using the Molecular Probes FxCycle PI/RNase Staining Solution kit according to manufacture protocols.
The protocol for the cell cycle experiments was as follows. The day before the experiment, the cells were fed in the flask by doubling the media. Then, the cells were harvested by adding non-enzymatic cell dissociation media and incubating at 37° C. for 15 minutes. Next, the cells were transferred to a 50 ml tube and pipet to create a single-cell suspension. The cells were then washed with PBS buffer. Then, the cells were resuspended in complete media at 5×10^5 cells per ml. Next, 2 ml of cells were transferred to 12-well plates. Then, the treatment compounds were dispensed into each well using the D300 liquid handler. The cells were incubated for the indicated time at 37° C. Then, the cells were harvested by adding 500 μl enzyme free cell dissociation solution and incubating at 37° C. for 15 minutes. Next, the cells were spun into a pellet and then washed with PBS. Then, 500 μl 100% EtOH was added and incubated at 4° C. overnight. Then, the cells were washed 3× with PBS. The cells were then resuspended in […] FxCycle PI/RNase solution, and incubated for 2-4 hours at room temperature. Finally, the cells were assayed by flow cytometry.
SH-SY5Y neuroblastoma cells were treated with varying concentrations of either Compound X or Y, and/or ATRA (all trans retinoic acid). […] In addition, the fold change of p21 was also calculated. […] The HDACi/ATRA combination effects were modest, with little difference compared to single agents.

[2] = system: SK-N-BE(2) or SH-SY5Y neuroblastoma cells; assay: Neuroblastoma differentiation index; type: cell-based; details: for differentiation index, low-concentration ATRA: 0.25 μM ATRA, alone or with HDAC inhibitor; for differentiation index: varying concentrations, alone
Experimental: SK-N-BE(2) or SH-SY5Y neuroblastoma cells were treated with varying concentrations of either Compound X or Y, and/or ATRA (all trans retinoic acid). The differentiation index was measured.
SK-N-BE(2) or SH-SY5Y neuroblastoma cells were treated with varying concentrations of either Compound X or Y, and/or ATRA (all trans retinoic acid). The differentiation index was measured. As a control, SK-N-BE(2) or SH-SY5Y neuroblastoma cells were treated with varying concentrations of ATRA.

[3] = system: human CD34+ bone marrow cells; assay: Cellular viability of cultured CD34+ bone marrow cells; details: 1 μM, treatment for 4 days
[4] = system: SK-N-BE(2) neuroblastoma cells; assay: Neuroblastoma cell cycle and p21, SK-N-BE(2); type: cell-based; details: 4 days
Experimental: SK-N-BE(2) neuroblastoma cells were treated with varying concentrations of either Compound X or Y, and/or ATRA (all trans retinoic acid). The percentage of the population of the cells at various stages of the cell cycle were measured after 4 days. In addition, the fold change of p21 was also calculated. […] The HDACi/ATRA combination effects were modest, with little difference compared to single agents.

[5] = target: HDAC3 (Homo sapiens (Human), UniProt O15379); assay: HDAC enzyme assay, HDAC3; type: biochemical
Experimental: Compounds for testing were diluted in DMSO to 50 fold the final concentration and a ten point three fold dilution series was made. The compounds were diluted in assay buffer (50 mM HEPES, pH 7.4, 100 mM KCl, 0.001% Tween-20, 0.05% BSA, 20 μM TCEP) to 6 fold their final concentration. […] The tripeptide substrate and trypsin at 0.05 μM final concentration were diluted in assay buffer at 6 fold their final concentration. The final enzyme concentrations used in these assays were 3.3 ng/ml (HDAC1), 0.2 ng/ml (HDAC2), 0.08 ng/ml (HDAC3) and 2 ng/ml (HDAC6).
(§1) Five μl of compounds and 20 μl of enzyme were added to wells of a black, opaque 384 well plate in duplicate. Enzyme and compound were incubated together at room temperature for 10 minutes. Five μ1 of substrate was added to each well, the plate was shaken for 60 seconds and placed into a Victor 2 microtiter plate reader. The development of fluorescence was monitored for 60 min and the linear rate of the reaction was calculated. The IC50 was determined using Graph Pad Prism by a four parameter curve fit.

[6] = system: SH-SY5Y neuroblastoma cells; assay: Neuroblastoma maturation gene expression, SH-SY5Y; type: cell-based; details: 72 hours, 1 μM
Experimental: (§2) The following is a quick summary of the HDAC neuroblastoma maturation experiments. Adherent cells were plated into 12- or 24-well plates at 10^6 cells/well and allowed to adhere for 2-4 hours. Compounds were dispensed in DMSO at the indicated concentrations using an automated liquid handling system (Tecan D300) and incubated for the indicated times at 37° C. with 5% CO2. Cells were harvested and RNA extracted using the Qiagen RNeasy Mini Kit according to manufacture protocols. The RNA was quantified and relative expression levels were assessed using the Applied Biosystems TaqMan RNA-to-Ct Kit according to manufacture protocols using the indicated TaqMan probes.
The protocol for the maturation experiments was as follows. The day before the experiment, the cells were fed in the flask by doubling the media. The cells were then harvested by adding non-enzymatic cell dissociation media and incubating at 37° C. for 15 minutes. The cells were transferred to a 50 ml tube and pipet to create a single-cell suspension. The cells were washed with PBS buffer. The cells were then resuspended in complete media at 5×10^5 cells per ml. Next, 2 ml of cells were transferred to 24- or 12-well plates. […] The RNA concentration was recorded. The relative RNA levels were assessed using the Applied Biosystems TaqMan RNA-to-Ct kit according to manufacture protocols using the indicated Taqman probes.

[7] = target: HDAC1 (Homo sapiens (Human), UniProt Q13547); assay: HDAC enzyme assay, HDAC1; type: biochemical
Experimental: (§3) Compounds for testing were diluted in DMSO to 50 fold the final concentration and a ten point three fold dilution series was made. The compounds were diluted in assay buffer (50 mM HEPES, pH 7.4, 100 mM KCl, 0.001% Tween-20, 0.05% BSA, 20 μM TCEP) to 6 fold their final concentration. The HDAC enzymes (purchased from BPS Biosciences) were diluted to 1.5 fold their final concentration in assay buffer. The tripeptide substrate and trypsin at 0.05 μM final concentration were diluted in assay buffer at 6 fold their final concentration. The final enzyme concentrations used in these assays were 3.3 ng/ml (HDAC1), 0.2 ng/ml (HDAC2), 0.08 ng/ml (HDAC3) and 2 ng/ml (HDAC6). The final substrate concentrations used were 16 μM (HDAC1), 10 μM (HDAC2), 17 μM (HDAC3) and 14 μM (HDAC6).
as §1

[8] = target: HDAC2 (Homo sapiens (Human), UniProt Q92769); assay: HDAC enzyme assay, HDAC2; type: biochemical
Experimental: as §3, §1

[9] = system: BE(2)-C neuroblastoma cells; assay: Neuroblastoma maturation gene expression, BE(2)-C; type: cell-based
Experimental: as §2
The protocol for the maturation experiments was as follows. The day before the experiment, the cells were fed in the flask by doubling the media. The cells were then harvested by adding non-enzymatic cell dissociation media and incubating at 37° C. for 15 minutes. The cells were transferred to a 50 ml tube and pipet to create a single-cell suspension. The cells were washed with PBS buffer. The cells were then resuspended in complete media at 5×10^5 cells per ml. Next, 2 ml of cells were transferred to 24- or 12-well plates. The treatment compounds were then dispensed into each well using the D300 liquid handler. The cells were then incubated for the indicated time at 37° C. The cells were harvested by scraping the cells and transferring to a 2 ml tube. The cells were spun to form a pellet. Next, RNA was extracted using the Qiagen RNeasy Mini kit according to manufacture protocols. The RNA concentration was recorded. The relative RNA levels were assessed using the Applied Biosystems TaqMan RNA-to-Ct kit according to manufacture protocols using the indicated Taqman probes.

Chain of HDAC1 (Q13547 whole entry): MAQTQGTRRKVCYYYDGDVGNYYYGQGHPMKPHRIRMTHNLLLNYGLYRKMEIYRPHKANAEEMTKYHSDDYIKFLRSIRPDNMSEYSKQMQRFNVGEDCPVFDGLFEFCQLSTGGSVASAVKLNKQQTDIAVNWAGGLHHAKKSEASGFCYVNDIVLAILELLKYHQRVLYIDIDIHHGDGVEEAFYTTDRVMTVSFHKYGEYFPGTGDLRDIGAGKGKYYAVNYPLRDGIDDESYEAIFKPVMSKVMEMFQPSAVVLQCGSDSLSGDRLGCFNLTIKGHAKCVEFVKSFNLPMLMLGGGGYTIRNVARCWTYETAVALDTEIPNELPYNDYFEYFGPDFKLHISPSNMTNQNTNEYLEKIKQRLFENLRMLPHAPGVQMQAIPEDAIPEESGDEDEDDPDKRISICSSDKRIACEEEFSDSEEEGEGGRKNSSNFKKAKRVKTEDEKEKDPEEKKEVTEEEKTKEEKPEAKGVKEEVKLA
Chain of HDAC2 (Q92769 whole entry): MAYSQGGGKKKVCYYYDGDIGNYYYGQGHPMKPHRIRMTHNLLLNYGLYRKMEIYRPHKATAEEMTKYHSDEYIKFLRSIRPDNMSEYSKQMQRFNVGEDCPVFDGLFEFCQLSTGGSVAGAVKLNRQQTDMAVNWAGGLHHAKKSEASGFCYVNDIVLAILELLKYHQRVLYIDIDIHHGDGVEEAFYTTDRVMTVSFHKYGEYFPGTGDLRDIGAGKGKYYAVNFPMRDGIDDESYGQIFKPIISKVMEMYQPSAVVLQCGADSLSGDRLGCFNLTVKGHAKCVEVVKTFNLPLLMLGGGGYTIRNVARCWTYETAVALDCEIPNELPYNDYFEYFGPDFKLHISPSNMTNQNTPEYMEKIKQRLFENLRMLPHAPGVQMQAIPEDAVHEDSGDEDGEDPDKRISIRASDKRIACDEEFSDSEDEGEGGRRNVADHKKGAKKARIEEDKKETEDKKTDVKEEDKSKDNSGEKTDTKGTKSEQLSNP
Chain of HDAC3 (O15379 whole entry): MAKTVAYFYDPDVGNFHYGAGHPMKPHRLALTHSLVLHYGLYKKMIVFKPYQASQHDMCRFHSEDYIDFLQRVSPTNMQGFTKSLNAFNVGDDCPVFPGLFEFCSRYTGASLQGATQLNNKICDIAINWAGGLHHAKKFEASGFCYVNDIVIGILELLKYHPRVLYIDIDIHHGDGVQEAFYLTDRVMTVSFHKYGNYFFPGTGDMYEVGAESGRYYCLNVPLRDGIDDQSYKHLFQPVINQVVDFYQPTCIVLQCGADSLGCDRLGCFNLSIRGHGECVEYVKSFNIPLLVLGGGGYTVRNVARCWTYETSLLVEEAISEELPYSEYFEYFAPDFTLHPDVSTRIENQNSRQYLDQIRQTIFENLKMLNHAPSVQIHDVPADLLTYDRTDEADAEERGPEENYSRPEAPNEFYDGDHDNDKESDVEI
Chain of HDAC3 (Q9Y618 395-489 partner): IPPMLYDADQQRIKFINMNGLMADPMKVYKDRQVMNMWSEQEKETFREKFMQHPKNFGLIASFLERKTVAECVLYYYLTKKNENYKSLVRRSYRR

Row | IC50 [5] [µM] | IC50 [7] [µM] | IC50 [8] [µM] | SMILES | percent of the cell population in G2, S, G1 and Sub G1 phase [1] | differentiation index, low-concentration ATRA [2] | decrease in cells viability [3] [fold] | cell cycle stages and fold change of p21 [1] | cell cycle stages and fold change of p21 [4] | differentiation index [2] | fold change of genes associated with maturation [6] | fold change of genes associated with maturation ([9]; 72 hours, 1 μM) | fold change of genes associated with maturation ([9]; 4 days, 0.5, 1 and 3 μM)
1 |  |  |  | CC1=C(/C=C/C(C)=C/C=C/C(C)=C/C(=O)O)C(C)(C)CCC1 [ATRA, all trans retinoic acid, reference compound] | little impact on cell cycle | sub-optimal |  |  |  |  |  |  | 
2 |  |  |  | O=C(CCCCCCNC(=O)c1cnc(N(c2ccccc2)c2ccccc2)nc1)NO [Compound A, 2-(diphenylamino)-N-(7-(hydroxyamino)-7-oxoheptyl) pyrimidine-5-carboxamide, reference compound] |  |  | 20 |  |  |  |  |  | 
3 | 0.445 | 0.006 | 0.036 | Nc1ccc(-c2cccs2)cc1NC(=O)c1ccc2c(c1)cc(C1CC1)n2CCN1CCOCC1 [Compound X, N-(2-amino-5-(thiophen-2-yl)phenyl)-2-cyclopropyl-1-(2-morpholinoethyl)-1H-indole-5-carboxamide] | induced similar cell cycle changes in all treatment groups | potentiated 0.25 μM ATRA |  | induced cell cycle arrest | induced cell cycle arrest | induced an increase in the differentiation index | alters genes associated with maturation | alters genes associated with maturation | alters genes associated with maturation
4 |  |  |  | O=C(CCCCCCNC(=O)c1cnc(N(c2ccccc2)c2ccccc2Cl)nc1)NO [Compound Y, 2-((2-chlorophenyl)(phenyl)amino)-N-(7-(hydroxyamino)-7-oxoheptyl)pyrimidine-5-carboxamide] |  | potentiated 0.25 μM ATRA |  | induced cell cycle arrest | induced cell cycle arrest | induced an increase in the differentiation index |  |  | 
